Test results: US20080318788A1, “Microcapsule” (priority 2005, published 2008)

Assay: Photo stabilisation study of COMPOUND (V) in gelatine microcapsules exposed to daylight, HPLC assay
Format: physicochemical
Details: Chocolate Brown dyed gelatine capsules, 88 hours exposure to daylight (8 hours daylight over 11 days)
Procedure: The HPLC system was from Waters comprising of two 510 pumps, a 717 plus Autosampler, a System Interface Module, a Lambda-Max 480 detector and Millennium Chromatography Manager software. Chromatography was achieved on a Zorbax ODS 5 μm C18 analytical column of dimension 4.6×250 mm internal diameter maintained at 35° C. Mobile phases were unmodified water (Milli-Q grade) in reservoir A and unmodified acetonitrile in reservoir B. Linear gradient elution was used with 70 to 90% B over the first 10 minutes, then 100% B for 3 minutes and returning to 70% B over 4 minutes. Injection cycle time was 20 minutes with a flow rate of 2 ml/min. The samples were either dissolved in acetonitrile or diethyl ether and 10 μl volume injected on to the column which was maintained at 35° C. Prior to use, mobile phase were degassed under vacuum with sonication and continuously sparged with helium. The naphthoquinones were detected by measurement of UV absorbance at 269 nm.
A batch of gelatine microcapsules containing 300 mg of COMPOUND (V) in 15 ml of Exxsol® D100 was produced.
The capsule slurry was washed repeatedly with water to remove debris and filtered to obtain a wet cake. An aliquot of the wet cake (11.3 g) was made up to 50 ml and dyed brown with Chocolate Brown (500 mg, equivalent to 10 mg/ml solution). Aliquots (200 μl) of microcapsule slurry of brown and undyed capsules were applied to glass microscope slides in duplicate. The slurry from each batch was spread to form a monolayer of microcapsules on each slide. The slides were air dried in a dark at room temperature (≅21° C.) and exposed to daylight on a south-facing windowsill for various time periods. Two slides from each batch were analysed per time point post of exposure. Unexposed slides stored in the dark were used as time zero reference.
The contents of the capsules were extracted by rupturing the capsules, by rolling a glass rod on the slides, and washing both the rod and the slide with diethyl ether. The extracts were made up to 10 ml and assayed by HPLC.

| Molecule | amount of COMPOUND (V) remaining, % of the initial amount |
| --- | --- |
| CC(=O)OC1=C(C(C)CCC[Si](C)(C)C)C(=O)c2ccccc2C1=O (stereo not shown) [COMPOUND (V)] | ~80% |

Same assay, conditions: undyed impervious gelatine capsules, 6 hours exposure to daylight

| Molecule | amount of COMPOUND (V) remaining, % of the initial amount |
| --- | --- |
| CC(=O)OC1=C(C(C)CCC[Si](C)(C)C)C(=O)c2ccccc2C1=O (stereo not shown) [COMPOUND (V)] | 60% |

Same assay, conditions: undyed impervious gelatine capsules, 16 hours exposure to daylight

| Molecule | amount of COMPOUND (V) remaining, % of the initial amount |
| --- | --- |
| CC(=O)OC1=C(C(C)CCC[Si](C)(C)C)C(=O)c2ccccc2C1=O (stereo not shown) [COMPOUND (V)] | 23% |

Same assay, conditions: undyed impervious gelatine capsules, 40 hours exposure to daylight (8 hours daylight over 5 days)

| Molecule | amount of COMPOUND (V) remaining, % of the initial amount |
| --- | --- |
| CC(=O)OC1=C(C(C)CCC[Si](C)(C)C)C(=O)c2ccccc2C1=O (stereo not shown) [COMPOUND (V)] | 6% |

Assay: Water solubility of UV protection dyes
Details: not given

| Molecule | WATER SOLUBILITY |
| --- | --- |
| Acid Orange 51 | 30 mg/mL |
| Cc1cc(N=Nc2cc([N+](=O)[O-])cc([N+](=O)[O-])c2O)c(N)cc1N [Mordant Brown 4] | 60 mg/mL |
| CC1=NN(c2ccc(S(=O)(=O)[O-])cc2)C(=O)C1N=Nc1ccc(-c2ccc(N=Nc3ccc(OS(=O)(=O)c4ccc(C)cc4)cc3)c(S(=O)(=O)[O-])c2)cc1.[Na+].[Na+] (stereo not shown) [Acid Orange 63] | 50 mg/mL |
| CC(=O)Nc1ccc2nc3c4ccccc4c(=N)cc-3oc2c1.Cl [Darrow Red] | 1 mg/mL |
| CCN(CC)c1ccc(N=Nc2ccccc2C(=O)O)cc1 [Ethyl Red] | 3 mg/mL |
| O=S1(=O)OC(c2ccc(O)c(Cl)c2)(c2ccc(O)c(Cl)c2)c2ccccc21 [Chlorophenol Red] | 60 mg/mL |
| Cc1cc(O)ccc1C1(c2ccc(O)cc2C)OS(=O)(=O)c2ccccc21 [m-Cresol Purple] | 2 mg/mL |
| CCN(CC)c1ccc(N=Nc2ccc(S(=O)(=O)[O-])cc2)cc1.[K+] [Ethyl Orange] | 100 mg/mL |
| Cc1nn(-c2ccccc2)c([O-])c1N=Nc1cc([N+](=O)[O-])cc(S(=O)(=O)[O-])c1[O-].[Cr+3].[Na+].[OH-] [Acid Orange 74] | 20 mg/mL |
| Cc1cc(N=Nc2ccc(C)c(N=Nc3cc(C)c(N)cc3N)c2)c(N)cc1N [Bismark Brown R] | 70 mg/mL |
| Nc1ccc(N=Nc2cccc(N=Nc3ccc(N)cc3N)c2)c(N)c1 [Bismark Brown Y] | 50 mg/mL |
| Nc1cc(N)c(N=Nc2cc([N+](=O)[O-])cc([N+](=O)[O-])c2O)cc1Cl [Mordant Brown 48] | 40 mg/mL |
| Nc1cc(N)c(S(=O)(=O)[O-])cc1N=Nc1cc([N+](=O)[O-])ccc1O.[Na+] [Mordant Brown 33] | 20 mg/mL |
| O=S(=O)([O-])c1ccc2c(N=Nc3ccccc3)c(O)ccc2c1.[Na+] [Crocein Orange G] | 40 mg/mL |
| Nc1cc(N)c(N=Nc2cccc3c(S(=O)(=O)O)cccc23)cc1N=Nc1cc([N+](=O)[O-])ccc1O.[Na] [Mordant Brown 1] | 60 mg/mL |
